The text below walks through data of PubChem BioAssay (NCI).

Each structure is given as a SMILES string.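 Results reflect a 48-hour exposure of cells in 96-well plates to compound at five concentrations. GI50 is the concentration that inhibits growth by half. TGI is the concentration that stops growth completely.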

Assay in all cases: NCI-60 cell line screen, 48 h
Assay [1] relates to IGROV1 ovarian.
Assay [2] relates to NCI-H460 lung.
The subject of assay [3] is HCC-2998 colon.
Assay [4] deals with M14 melanoma.
For assay [5], the system named is NCI-H522 lung.
The subject of assay [6] is EKVX NSCLC.
Assay [7] relates to SNB-75 CNS.
In assay [8] the test system is 786-0 renal.

On to `C[C@@H](NC(=O)c1ccc(F)cc1)c1ccc2c(c1)CCN2C(=O)C1CCOCC1`, for which the GI50 in assay [1], in assay [2], in assay [3], in assay [4], in assay [5] and in assay [6] was above 100 µM in each case. Also, the GI50 in assay [7] was 79.2 µM; in assay [8], above 100 µM. In addition, the TGI in assay [1], in assay [2], in assay [3], in assay [4], in assay [5] and in assay [6] was above 100 µM throughout. The TGI in assay [7] and in assay [8] was above 100 µM in each case.

For the compound `COc1cc(C(=O)/C=C/c2c(C(F)(F)F)nc3ccccn23)cc(OC)c1OC`, the GI50 in assay [1] is 2.23 µM; in assay [2] it was 2.01 µM; in assay [3] it was 1.83 µM; in assay [4], 1.82 µM; in assay [5], 1.77 µM; in assay [6], 2.37 µM. The GI50 in assay [7] is 1.76 µM; in assay [8], 1.72 µM. The TGI turned out to be 6.02 µM in assay [1]; 13.4 µM in assay [2]; 3.38 µM in assay [3]; 4.06 µM in assay [4]; 3.91 µM in assay [5]; 6.78 µM in assay [6]. The TGI in assay [7] amounted to 3.44 µM; in assay [8], 3.42 µM.

Consider `COc1ccc(-c2[nH]c3ccccc3c2/C=C(\C#N)S(=O)(=O)c2ccccc2)cc1`, for which the GI50 is 3.44 µM in assay [1]; 0.404 µM in assay [2]; 1.11 µM in assay [3]; 0.383 µM in assay [4]; 1.78 µM in assay [5]; 1.25 µM in assay [6]. Also, the results for the GI50 in assay [7] and in assay [8] were 0.375 µM and 0.844 µM, respectively. Further, the TGI is above 100 µM in assay [2]; 5.99 µM in assay [3]; 14.4 µM in assay [4]; above 100 µM in assay [6]; above 25.9 µM in assay [7]; above 38.3 µM in assay [8].

On to `Cc1ccc(S(=O)(=O)NC(=O)OC23COCN2COC3)cc1`, for which the TGI in assay [1], in assay [2], in assay [3], in assay [4], in assay [5] and in assay [6] was above 100 µM throughout. Further, the TGI in assay [7] and in assay [8] was above 100 µM each time.

As to `C=C1C(=O)O[C@H]2[C@H]1CC/C(COC(=O)NCc1c[nH]c3ccc(F)cc13)=C\CC[C@@]1(C)O[C@@H]21`, the GI50 is 1.54 µM in assay [1]; 2.4 µM in assay [2]; 1.77 µM in assay [3]; 1.23 µM in assay [4]; 0.835 µM in assay [5]; 1.89 µM in assay [6]. The GI50 in assay [7] was 1.33 µM; in assay [8], 0.899 µM. The TGI in assay [1] worked out at 3.34 µM; in assay [2], 6.03 µM; in assay [3] it was 3.41 µM; in assay [4] it was 2.73 µM; in assay [5] it was 2.4 µM; in assay [6], 4.51 µM. The TGI in assay [7] worked out at 2.76 µM; in assay [8] it was 2.43 µM.

With `COc1cc(-c2ncn(/C=C\c3nnco3)n2)cc(C(F)(F)F)c1`, the GI50 is 1.89 µM in assay [1]; 0.0431 µM in assay [2]; 0.215 µM in assay [3]; 0.791 µM in assay [4]; 0.0671 µM in assay [5]; 4.66 µM in assay [6]. The GI50 in assay [7] was 0.0863 µM; in assay [8], 0.465 µM. For the same compound, the TGI in assay [1] was above 100 µM; in assay [2], above 100 µM; in assay [3] it was 4.5 µM; in assay [4], 37.2 µM; in assay [5] it was 1.61 µM; in assay [6] it was above 100 µM. The TGI in assay [7] was 4.73 µM; in assay [8], above 51.9 µM.

As for `COc1ccc2c(c1)C(=O)c1c-2c(=O)n(CCCN(C)C)c2cc(OC)c(OC)cc12`, the GI50 in assay [1] is 10.1 µM; in assay [2], 0.273 µM; in assay [3] it was 14.1 µM; in assay [4] it was 6.65 µM; in assay [5], 4.69 µM; in assay [6], 16.5 µM. In addition, the GI50 in assay [7] was 10.1 µM; in assay [8] it was 6.93 µM. Besides, the TGI was 21.8 µM in assay [1]; 11.4 µM in assay [2]; 27.3 µM in assay [3]; 21.7 µM in assay [4]; 21.6 µM in assay [5]; 30.7 µM in assay [6]. In addition, the TGI in assay [7] was 23 µM; in assay [8], 20.5 µM.

As for `c1ccc(C2CCCCC2)c(OCCCCCN2CCNCC2)c1`, the GI50 in assay [1] was 2.77 µM; in assay [2] it was 1.65 µM; in assay [3], 1.32 µM; in assay [4], 1.86 µM; in assay [5] it was 10.3 µM; in assay [6], 4.07 µM. Also, the GI50 in assay [7] is 1.32 µM; in assay [8], 1.7 µM. In addition, the TGI in assay [1] came out at 12.6 µM; in assay [2], 3.56 µM; in assay [3], 2.7 µM; in assay [4], 3.89 µM; in assay [5], 28.5 µM; in assay [6], 19.9 µM. For the same compound, the TGI worked out at 3.54 µM in assay [7] and 4.27 µM in assay [8].

On to `c1ccc2c(CNCCN3CCNCC3)c3ccccc3c(CNCCN3CCNCC3)c2c1`, for which the GI50 in assay [1] was 19.8 µM; in assay [2], 25 µM; in assay [3], 12.7 µM; in assay [4], 22.8 µM; in assay [5], 13 µM; in assay [6] it was 19.3 µM. Besides, the results for the GI50 in assay [7] and in assay [8] were 58.4 µM and 2.26 µM, respectively. Besides, the TGI came to 85.3 µM in assay [1]; 98.3 µM in assay [2]; 29.4 µM in assay [3]; 60.4 µM in assay [4]; 35.9 µM in assay [5]; 61.3 µM in assay [6]. Also, the TGI in assay [7] was above 100 µM; in assay [8], 23.4 µM.

`CN(C)CCCn1c2c(c3cc4c(cc3c1=O)OCO4)C(=O)c1ccccc1-2`: the GI50 is 3.33 µM in assay [1]; 8.82 µM in assay [2]; 0.121 µM in assay [3]; 0.0984 µM in assay [4]; 4.59 µM in assay [5]; 5.55 µM in assay [6]. Moreover, the GI50 in assay [7] was 5.89 µM; in assay [8], 0.0131 µM. In addition, the TGI was 12.6 µM in assay [1]; above 32.8 µM in assay [2]; 1.38 µM in assay [4]; 35.2 µM in assay [5]; 34.9 µM in assay [6]; 37.4 µM in assay [7]. In assay [8], the TGI turned out to be 1.96 µM.
